According to paper PMC10538940, “Evaluating Scalable Supervised Learning for Synthesize-on-Demand Chemical Libraries” (Journal of Chemical Information and Modeling, 2023):

Target: PriA-SSB (Klebsiella pneumoniae subsp. pneumoniae, UniProt A6TGC5)
Assay: PriA-SSB AlphaScreen (AS) dose-response screen of Enamine REAL compounds
Type: biochemical, Klebsiella pneumonia
Conditions: for Enamine Inactive (not confirmed as hit in full dose-response curves): eight concentrations 515.6 nm to 66 μm, includes some initial hits not confirmed
Procedure: We screened the MLPCN compound library using an AlphaScreen (AS) assay at a single concentration (33.3 μm) following the same protocol previously used to screen the LC1234 libraries.[27],[28] Briefly, library compounds and controls were dispensed from 10 mM DMSO stocks into white 1536-well plates with an Echo 550 acoustic liquid handler. Next, 3 μL of a master mix was added to each well using a Mantis liquid handler with a high-volume silicone chip to yield a final reaction mixture containing 10 mM HEPES-HCl (pH 7.5), 150 mM NaCl, 1 mM MgCl2, 10 mM dithiothreitol, 1 mg/mL bovine serum albumin, 0.01% Triton X-100, 0.1 μM Klebsiella pneumonia PriA (with N-terminal 6×His tag), 0.1 μM Biotinylated-SSBct (N-Biotin-Trp-Met-Asp-Phe-Asp-Asp-Asp-Ile-Pro-Phe-C), 5 μg/mL of both AS acceptor and donor beads, and 33.3 μm of compound. For positive and negative control wells, the compound was replaced with 25 μM SSBct peptide (N-Trp-Met-Asp-Phe-Asp-Asp-Asp-Ile-Pro-Phe-C) or 25 μM ΔFSSBct (N-Trp-Met-Asp-Phe-Asp-Asp-Asp-Ile-Pro-C), respectively. Plates were centrifuged briefly and rocked for an hour at room temperature. Then, the AS signal of each well was measured with a PheraStar plate reader using a 0.1 s settling time, a 0.3 s excitation, a 0.04 s delay, and a 0.6 s integration time. AS signals for each well were adjusted as previously described to reduce the impact of plate and edge effects.[28] We calculated a Z′ factor for each plate[61] and repeated plates with Z′ < 0.5. In addition, we calculated the % inhibition relative to the controls for each compound. We retested compounds with ≥35% inhibition that also passed PAINS filters[62],[63] with the same assay to confirm activity.
All 68 compounds were initially screened in four replicates at eight concentrations ranging from 515.6 nm to 66 μm. We defined compounds whose median % inhibition at 33 μm was at least 50%, the same threshold used for the AMS screen, as initial hits. We repeated the dose–response curve screens for two additional rounds of ten compounds each, expanding the range of concentrations tested to improve the quality of the curve fits (Appendix A.9). We defined confirmed hits as those with a dose–response curve in curve class[82] 1.2 or in curve class 2.2 with an IC50 95% upper confidence limit within the tested range of concentrations. We used the Collaborative Drug Discovery Vault software[83] to fit dose–response curves, calculate IC50 values and the 95% upper and lower confidence limits, and define curve classes. […]
A.9 Enamine REAL Dose-Response Curves
We generated three sets of dose-response curves: eight-point curves with four replicates for all 68 Enamine compounds, 16-point curves with eight replicates for 10 compounds, and another set of 16-point curves with six replicates for 10 compounds. The eight-point dose-response curves started with an initial concentration of 66 µm and progressively divided the concentration in half until reaching 515.6 nm. Both 16-point dose-response curves started with an initial concentration of 100 µm, then 66.7 µm, and then progressively divided the concentration in half until reaching 4.2 nm. All dose-response screens followed the same protocol used for the MLPCN library. The dose-response curve images are available in our […]
We generated the 16-point dose-response curves because we were unable to reliably estab-lish IC50 values for some compounds in the eight-point screen. The minimum concentrations tested were not low enough. When reporting IC50 values and bounds in Table 4 we used the screening data from the highest-quality dose-response curve. The second set of 16-point curves were the highest quality because they had 16 concentrations and were unaﬀected by any spatial plate eﬀects. The ﬁrst set of 16-point curves were the next highest quality because they also had 16 concentrations and the most replicates. However, some of the readings at the lowest concentration in these curves were skewed due to assay spatial eﬀects at the plate […]
edge. […]

Sequence of PriA-SSB (A6TGC5 whole entry): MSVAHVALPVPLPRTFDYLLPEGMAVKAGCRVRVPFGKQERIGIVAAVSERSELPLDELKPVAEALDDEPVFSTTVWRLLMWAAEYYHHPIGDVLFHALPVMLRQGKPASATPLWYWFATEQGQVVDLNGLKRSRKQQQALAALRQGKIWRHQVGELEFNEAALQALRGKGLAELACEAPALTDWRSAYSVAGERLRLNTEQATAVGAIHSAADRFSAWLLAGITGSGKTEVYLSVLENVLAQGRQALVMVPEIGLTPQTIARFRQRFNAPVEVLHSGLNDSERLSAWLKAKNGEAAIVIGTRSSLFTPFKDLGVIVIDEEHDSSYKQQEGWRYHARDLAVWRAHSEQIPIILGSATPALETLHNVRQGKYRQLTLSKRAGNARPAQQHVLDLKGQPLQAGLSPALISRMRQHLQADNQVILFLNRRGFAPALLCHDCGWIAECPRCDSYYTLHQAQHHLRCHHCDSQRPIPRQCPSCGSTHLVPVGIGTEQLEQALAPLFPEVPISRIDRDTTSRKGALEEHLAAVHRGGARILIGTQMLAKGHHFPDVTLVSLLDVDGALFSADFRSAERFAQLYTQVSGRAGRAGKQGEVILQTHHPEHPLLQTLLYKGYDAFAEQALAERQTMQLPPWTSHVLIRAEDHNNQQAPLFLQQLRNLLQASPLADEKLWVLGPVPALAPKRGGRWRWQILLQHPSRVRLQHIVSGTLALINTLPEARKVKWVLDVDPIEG

O=C(Cc1ccc(S(=O)(=O)N2CCOCC2)s1)Nc1nc(-c2ccccn2)cs1 [Z29467739]
Enamine Inactive (not confirmed as hit in full dose-response curves): Inactive

Cc1cccc2nc(CSc3cccc4cccnc34)cn12 [Z56788250]
Enamine Inactive (not confirmed as hit in full dose-response curves): Inactive

CCOC(=O)c1c(C)[nH]c(C(=O)CSc2cccc3cccnc23)c1C [Z71173293]
Enamine Inactive (not confirmed as hit in full dose-response curves): Inactive

Cc1ccc(-n2nc(C)cc2NC(=O)CSc2cccc3cccnc23)cc1 [Z71174619]
Enamine Inactive (not confirmed as hit in full dose-response curves): Inactive

O=C(CN1C(=O)COc2ccc([N+](=O)[O-])cc21)Nc1nc(-c2ccccn2)cs1 [Z109132782]
IC50: 12.4 µM

O=c1[nH]ncc(N/N=C/c2ccccn2)c1Cl [Z114886052]
Enamine Inactive (not confirmed as hit in full dose-response curves): Inactive

O=C(CSc1cccc2cccnc12)Nc1cccc(N2CCCC2=O)c1 [Z202503096]
Enamine Inactive (not confirmed as hit in full dose-response curves): Inactive

CCOC(=O)c1[nH]c(C)c(C(=O)CSc2cccc3cccnc23)c1C [Z225905608]
Enamine Inactive (not confirmed as hit in full dose-response curves): Inactive

c1cnc2c(Cn3ccnc3)cccc2c1 [Z241926076]
Enamine Inactive (not confirmed as hit in full dose-response curves): Inactive

O=C(O)CSc1ccc([N+](=O)[O-])c2cccnc12 [Z285779920]
Enamine Inactive (not confirmed as hit in full dose-response curves): Inactive

O=[N+]([O-])c1cc(Cl)cc(C=Nc2ccc(Cl)c3ncccc23)c1O [Z314947084]
Enamine Inactive (not confirmed as hit in full dose-response curves): Inactive

CC(C)N(C)S(=O)(=O)c1ccc(F)c(C(=O)Nc2nc(-c3ccccn3)cs2)c1 [Z339655406]
IC50: 6.8 µM

O=[N+]([O-])c1ncn(Cc2cccc3cccnc23)n1 [Z666250890]
Enamine Inactive (not confirmed as hit in full dose-response curves): Inactive

Fc1cccc2[nH]c(-c3ccccn3)nc12 [Z666485712]
Enamine Inactive (not confirmed as hit in full dose-response curves): Inactive

Clc1cccnc1NN=Cc1ccccn1 [Z734817070]
Enamine Inactive (not confirmed as hit in full dose-response curves): Inactive

c1cnc2c(SCCn3cncn3)cccc2c1 [Z1116571364]
Enamine Inactive (not confirmed as hit in full dose-response curves): Inactive

Nc1ncc(-c2ccccn2)cn1 [Z1255380138]
Enamine Inactive (not confirmed as hit in full dose-response curves): Inactive

Cc1n[nH]c(SCC(=O)Nc2nnc(-c3ccccn3)[nH]2)n1 [Z1313381195]
IC50: 15.5 µM

O=c1[nH]c(NN=Cc2ccccn2)nc2ccccc12 [Z1407899729]
Enamine Inactive (not confirmed as hit in full dose-response curves): Inactive

O=C(O)c1cc(C(=O)N2CCS(=O)(=O)CC2)ccn1 [Z1443864314]
Enamine Inactive (not confirmed as hit in full dose-response curves): Inactive

c1cncc(CSCc2cccc3cccnc23)c1 [Z2146195633]
Enamine Inactive (not confirmed as hit in full dose-response curves): Inactive

CCc1nc(C)c(CSc2cccc3cccnc23)o1 [Z2273856428]
Enamine Inactive (not confirmed as hit in full dose-response curves): Inactive

Cc1nn(C(C)C)cc1-c1ccc2cccnc2c1C [Z2618185084]
Enamine Inactive (not confirmed as hit in full dose-response curves): Inactive

CC(C)c1ncc(-c2cccc3cccnc23)n1C [Z2739840324]
Enamine Inactive (not confirmed as hit in full dose-response curves): Inactive

CC(C)(C)c1ncc(-c2cccc3cccnc23)o1 [Z2998111045]
Enamine Inactive (not confirmed as hit in full dose-response curves): Inactive

O=C(Nc1nc(-c2ccccn2)cs1)C1(C2CCCCO2)CCCO1 (stereo not drawn) [Z3075781550]
Enamine Inactive (not confirmed as hit in full dose-response curves): Inactive

Cc1cc(-c2ccccn2)n[nH]1 [Z3225506284]
Enamine Inactive (not confirmed as hit in full dose-response curves): Inactive

C1=C(c2cccc3cccnc23)CCNC1 [Z3238971184]
Enamine Inactive (not confirmed as hit in full dose-response curves): Inactive

c1ccc(-c2n[nH]c3ccccc23)nc1 [Z3242476057]
Enamine Inactive (not confirmed as hit in full dose-response curves): Inactive

c1ccc(-c2csc(NC3COC4(CCC4)C3)n2)nc1 (stereo not drawn) [Z3295148399]
Enamine Inactive (not confirmed as hit in full dose-response curves): Inactive

O=C1CC2(CCOC2)C(C(=O)Nc2nc(-c3ccccn3)cs2)CN1 (stereo not drawn) [Z3297024656]
IC50: 12.6 µM

c1ccc(-c2cnc3n2CCC3)nc1 [Z3347084877]
Enamine Inactive (not confirmed as hit in full dose-response curves): Inactive

CC1CC(Nc2nc(-c3ccccn3)nc3c2CCC3)CC(C)N1 (stereo not drawn) [Z3395547714]
IC50: 12.1 µM

c1cc2c(c(-c3cccc4cccnc34)c1)CNC2 [Z3484513235]
Enamine Inactive (not confirmed as hit in full dose-response curves): Inactive

OCCCN(CCO)c1ccc2ccc3cccnc3c2n1 [Z3557694708]
Enamine Inactive (not confirmed as hit in full dose-response curves): Inactive

CN(C)CCN(C)c1ccc2ccc3cccnc3c2n1 [Z3557781825]
Enamine Inactive (not confirmed as hit in full dose-response curves): Inactive

COC(C)COc1ccc2ccc3cccnc3c2n1 (stereo not drawn) [Z3634004206]
Enamine Inactive (not confirmed as hit in full dose-response curves): Inactive

CC1(C)CC(CSc2cccc3cccnc23)=NO1 [Z3638513333]
Enamine Inactive (not confirmed as hit in full dose-response curves): Inactive

Clc1ccc(CN2CCOCCOCC2)c2ncccc12 [Z3652859018]
Enamine Inactive (not confirmed as hit in full dose-response curves): Inactive
